According to ChEMBL document CHEMBL6109147, “Discovery of Potent STING Inhibitors Bearing a Difluorobenzodioxol Structural Motif as Potent Anti-Inflammatory Agents” (J Med Chem, 2025):
Activity calls are given as the source filed them. The calls are words filed in the database; no cut-off is given here.

What was measured:
[1] = system: Mus musculus; experiment: Anti-inflammatory activity in TREX1 D18N mouse model assessed as reduction in Ccl5 mRNA expression in kidney at 10 mg/kg, ip measured after 2 weeks; type: functional, organism-based
[2] = Cytotoxicity against mouse RAW-Lucia ISG cells assessed as cell viability measured after 24 hrs by CCK8 assay; type: toxicity, cell-based
[3] = system: Mus musculus; experiment: Anti-inflammatory activity against MSA-2 induced C57BL/6 mouse inflammation model assessed as inhibition of MSA-2 induced IL-6 level in plasma at 10 mg/kg, ip pre-treated for 1 hr followed by stimulated with MSA-2 for 4 hrs by ELISA; type: functional, organism-based; details: time 5.0 hrs
[4] = target: T1, Stimulator of interferon genes protein (Mus musculus) (UniProt Q3TBT3); experiment: Inhibition of STING downstream signalling in mouse RAW264.7 cells assessed as inhibition of […] induced IP-10 secretion level at 0.3 to 3 uM pre-treated for 1 hr followed by stimulated with […] measured after 24 hrs by ELISA; type: cell-based; details: dose 0.3-3 µM, time 25.0 hrs
T1 sequence (whole entry): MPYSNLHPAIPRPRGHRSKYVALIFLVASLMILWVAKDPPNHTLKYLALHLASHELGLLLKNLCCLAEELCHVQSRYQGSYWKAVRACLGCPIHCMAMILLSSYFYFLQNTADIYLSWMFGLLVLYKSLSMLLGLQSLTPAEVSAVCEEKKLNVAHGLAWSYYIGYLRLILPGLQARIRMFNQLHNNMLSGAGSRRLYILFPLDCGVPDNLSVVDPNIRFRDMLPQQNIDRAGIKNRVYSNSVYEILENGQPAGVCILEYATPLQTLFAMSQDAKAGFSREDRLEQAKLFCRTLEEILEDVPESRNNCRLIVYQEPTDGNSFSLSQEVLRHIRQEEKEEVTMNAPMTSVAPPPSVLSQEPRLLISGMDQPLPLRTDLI

[5] = system: Stimulator of interferon genes protein (Homo sapiens), Q86WV6 [UNDEFINED MUTATION]; experiment: Inhibition of human STING expressed in 293T-Dual-hSTING-AQ cells assessed as reduction in cGAMP-induced secreted luciferase reporter of interferon stimulated gene (ISG) measured after 24 hrs incubation; type: cell-based
Chain of Stimulator of interferon genes protein (Homo sapiens), Q86WV6 [UNDEFINED MUTATION] (Q86WV6 whole entry, looked up, change not shown): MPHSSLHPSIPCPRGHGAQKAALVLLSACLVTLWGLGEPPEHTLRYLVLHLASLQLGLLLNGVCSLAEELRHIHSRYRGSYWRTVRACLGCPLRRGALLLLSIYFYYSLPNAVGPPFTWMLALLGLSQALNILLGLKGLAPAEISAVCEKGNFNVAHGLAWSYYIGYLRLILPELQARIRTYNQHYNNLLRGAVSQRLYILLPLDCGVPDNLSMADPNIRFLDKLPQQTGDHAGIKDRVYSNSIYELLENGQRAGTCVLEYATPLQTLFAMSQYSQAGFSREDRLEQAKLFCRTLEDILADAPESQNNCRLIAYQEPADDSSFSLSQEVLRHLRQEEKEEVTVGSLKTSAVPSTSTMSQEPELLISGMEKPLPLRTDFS

inhibition [4]: Active
inhibition [5]: Active
SMILES: N#CC/C=C/c1ccc2[nH]cc(NC(=O)Nc3ccc4c(c3)OC(F)(F)O4)c2c1
Activity [1]: Active
Activity [2]: Non-toxic
inhibition [3]: Active
